Test results: ChEMBL document CHEMBL4834398, “Synthesis of Yakuchinone B-Inspired Inhibitors against Islet Amyloid Polypeptide Aggregation” (J Nat Prod, 2021)
The source made the active and inactive calls. The calls are words filed in the database; no cut-off is given here.

Key:
[1] = Protective activity against IAPP-induced toxicity in rat BRIN-B11 cells assessed as cell viability after 72 hrs by MTT assay; conditions: BRIN-BD11, 72 h
[2] = target: T1, Islet amyloid polypeptide (Homo sapiens, UniProt P10997); test: Inhibition of islet amyloid polypeptide (unknown origin) aggregation after 24 hrs by thioflavin T based fluorescence assay
T1 sequence (P10997 whole entry): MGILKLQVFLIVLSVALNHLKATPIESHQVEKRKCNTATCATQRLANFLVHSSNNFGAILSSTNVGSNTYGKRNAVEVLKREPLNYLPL

BRIN-BD11 [3] = test: Protective activity against IAPP-induced toxicity in rat […] cells assessed as cell viability at 10 uM after 72 hrs by MTT assay; type: functional, cell-based
BRIN-BD11 [4] = test: Protective activity against IAPP-induced toxicity in rat […] cells assessed as cell viability at 0.02 to 0.63 uM after 72 hrs by MTT assay; type: functional, cell-based; conditions: dose 0.02-0.63 µM

Row | Structure (SMILES) | EC50 [1] [nM] | IC50 [2] [nM] | Activity (BRIN-BD11 [3]) | Activity (BRIN-BD11 [4])
1 | O=c1c(O)c(-c2ccc(O)cc2O)oc2cc(O)cc(O)c12 [MORIN] | 1000 | 7800 | – | –
2 | CC(=O)CCc1ccc(O)c(O)c1 | – | > 10000 | – | –
3 | CCC(=O)/C=C/c1cccc(O)c1O | – | – | inactive | –
4 | CCCC(=O)/C=C/c1cccc(O)c1O | 100 | – | – | Active
5 | CC(=O)/C=C/c1cccc(O)c1O | – | – | inactive | –
6 | CC(=O)/C=C/c1ccc(O)c(O)c1 | – | 3700 | – | –
7 | CCCCC(=O)/C=C/c1cccc(O)c1O | 200 | – | – | Active
